This passage reports target mRNA inhibition results from the OligoGym collection.

Several values for one entry are separate records, joined by “and”; a condition that tells them apart may be missing. Identical values can stand only once. After the bases stand the sugars from the 5' end (letter, count) and the backbone: PS all phosphorothioate, else s phosphorothioate and o phosphodiester by linkage. Methylation of C is not given here. e = 2'-O-(2-methoxyethyl) (MOE); k = constrained ethyl (cEt); d = 2'-deoxy (DNA)

The series deals with SOD1. Conditions: ASO.

For “ACAAGTTTAATACCCAT (sugars e2 k2 d8 k2 e3, PS)”, where the note is “HepG2, 5 µM”, the target mRNA inhibition is 58%.

As for “AGTGTTTAATGTTTATC (sugars e2 k2 d9 k2 e2, PS)”, the target mRNA inhibition was 35% (HepG2, 0.1875 µM); 66% (HepG2, 0.75 µM); 83% (HepG2, 3 µM); 75% (HepG2, 4 µM); 80% (HepG2, 5 µM); 84% and 87% (HepG2, 12 µM).

For “TTATCAGGATACATTTC (sugars e2 k2 d8 k2 e3, PS)”, the target mRNA inhibition (HepG2, 4 µM) was determined as 57%.

Turning to “ATGTTTATTGGGCGATC (sugars e2 k2 d9 k2 e2, PS)”, where the note is “HepG2, 4 µM”, the target mRNA inhibition was found to be 64%.

For the setting “HepG2, 5 µM”, “CAAGTTTAATACCCATC (sugars e2 k2 d9 k2 e2, PS)” returned a target mRNA inhibition of 62%.

“CAAGGGAATGTTTATTG (sugars e3 k2 d7 k2 e3, PS)”: the target mRNA inhibition (HepG2, 3 µM) was found to be 19%.

Under “HepG2, 3 µM”, “TATTGGGCGATCCCAAT (sugars e3 k2 d7 k2 e3, PS)” came in with a target mRNA inhibition of 3%.

As to “TGTCAGCAGTCACATTGCCC (sugars e5 d10 e5, PS)”, where the note is “HepG2, 5 µM”, the target mRNA inhibition was 55% and 49%.

For the sequence “TCAGGATACATTTCTACAGC (sugars e5 d10 e5, linkages s1 o3 s11 o3 s1)”, the target mRNA inhibition is, setting by setting: (A431, 0.12 µM) 9%; (A431, 0.6 µM) 8%; (A431, 3 µM) 21%; (A431, 15 µM) 49%; (HepG2, 0.222 µM) 25%; (HepG2, 0.667 µM) 50%. Besides, the target mRNA inhibition runs as follows: (HepG2, 2 µM) 92%; (HepG2, 6 µM) 73%.

“ACAGCTAGCAGGATAAC (sugars e3 k2 d7 k2 e3, PS)”: the target mRNA inhibition (HepG2, 3 µM) amounted to 20%.

On to “AAATTCTGACAAGTTTA (sugars e3 k2 d7 k2 e3, PS)”, for which the target mRNA inhibition (HepG2, 3 µM) is 21%.

Regarding “TCATGAACATGGAATCCATG (sugars e5 d10 e5, PS)”, the target mRNA inhibition (HepG2, 5 µM) is 24% and 19%.

In turn, “TGTTTATTGGGCGATCC (sugars e2 k2 d9 k2 e2, PS)” gave a target mRNA inhibition (HepG2, 4 µM) of 47%.

Take “CGCCCTTCAGCACGCACACG (sugars e5 d10 e5, PS)”: the target mRNA inhibition is, setting by setting: (HepG2, 0.1875 µM) 0%; (HepG2, 0.75 µM) 2%; (HepG2, 3 µM) 28%; (HepG2, 4 µM) 23%; (HepG2, 12 µM) 92%.

Consider “CAGGATACATTTCTACAGCT (sugars e5 d10 e5, linkages s1 o3 s11 o2 s2)”, for which the target mRNA inhibition (A431, 0.062 µM) was found to be 33%; the target mRNA inhibition (A431, 0.185 µM) came to 29%; the target mRNA inhibition (A431, 0.556 µM) turned out to be 52%; the target mRNA inhibition (A431, 0.6 µM) is 50%; the target mRNA inhibition (A431, 1.667 µM) was determined as 62%; the target mRNA inhibition (A431, 5 µM) is 74%. The target mRNA inhibition reads like this: (A431, 15 µM) 82%; (SH-SY5Y, 0.062 µM) 10%; (SH-SY5Y, 0.185 µM) 10%; (SH-SY5Y, 0.556 µM) 33%; (SH-SY5Y, 1.667 µM) 61%; (SH-SY5Y, 5 µM) 81%. In addition, the target mRNA inhibition (SH-SY5Y, 15 µM) worked out at 92%.

Sequence “TTCCACCTTTGCCCAAG (sugars e3 k2 d7 k2 e3, PS)” registered a target mRNA inhibition (HepG2, 3 µM) of 87%.

For “GGATACATTTCTACAG (sugars kekeddddddddekek, linkages s1 o3 s8 o1 s2)”, the target mRNA inhibition is, setting by setting: (A431, 0.12 µM) 0%; (A431, 0.6 µM) 0%; (A431, 3 µM) 0%; (A431, 15 µM) 14%.

As to “ACACCACAAGCCAAACG (sugars e2 k2 d8 k2 e3, PS)”, the target mRNA inhibition (HepG2, 4 µM) amounted to 27%.

As to “CCCCACACCTTCACTGG (sugars e3 k2 d7 k2 e3, PS)”, the target mRNA inhibition (HepG2, 3 µM) is 14%.

Under “HepG2, 5 µM”, “GCAATGGTCTCCTGAGAGTG (sugars e5 d10 e5, PS)” showed a target mRNA inhibition of 57%.

Consider “TTAATGTTTATCAGGA (sugars kekeddddddddekek, linkages s1 o3 s8 o1 s2)”, for which the target mRNA inhibition by setting is: (A431, 0.12 µM) 3%; (A431, 0.6 µM) 45%; (A431, 3 µM) 65%; (A431, 15 µM) 81%; (HepG2, 0.222 µM) 53%; (HepG2, 0.667 µM) 82%. Besides, the target mRNA inhibition amounted to 91% (HepG2, 2 µM) and 96% (HepG2, 6 µM).

“GTCTCCGCGACTACTTTATA (sugars e5 d10 e5, PS)” came in with a target mRNA inhibition (HepG2, 4 µM) of 22%.

As to “GCTTCCCCACACCTTCAC (sugars e5 d8 e5, linkages s1 o3 s9 o2 s2)”, the target mRNA inhibition (A431, 0.12 µM) worked out at 0%; the target mRNA inhibition (A431, 0.6 µM) was found to be 1%; the target mRNA inhibition (A431, 3 µM) is 0%; the target mRNA inhibition (A431, 15 µM) came to 5%; the target mRNA inhibition (HepG2, 0.222 µM) came to 8%; the target mRNA inhibition (HepG2, 0.667 µM) was 29%. The target mRNA inhibition reads like this: (HepG2, 2 µM) 46%; (HepG2, 6 µM) 76%.

For the sequence “GCCTCATAATAAGTGCC (sugars e2 k2 d9 k2 e2, PS)”, the target mRNA inhibition (HepG2, 5 µM) was 33%.

Take “TCTGGCAAAATACAGGT (sugars e3 k2 d7 k2 e3, PS)”: the target mRNA inhibition (HepG2, 3 µM) amounted to 0%.

For the sequence “GATTACAGTGTTTAATG (sugars e2 k2 d8 k2 e3, PS)”, the target mRNA inhibition (HepG2, 5 µM) was 54%.

In turn, “TTTTAGTTTGAATTTGG (sugars e3 k2 d7 k2 e3, PS)” registered a target mRNA inhibition (HepG2, 3 µM) of 12%.

As for “TCGCCCTTCAGCACGCA (sugars e2 k2 d8 k2 e3, PS)”, the target mRNA inhibition (HepG2, 4 µM) is 56% and 55%; the target mRNA inhibition (HepG2, 5 µM) was 53% and 64%; the target mRNA inhibition (HepG2, 12 µM) was found to be 71%.

The sequence “GCTAGCAGGATAACAGA (sugars e3 k2 d7 k2 e3, PS)” gave a target mRNA inhibition (HepG2, 3 µM) of 10%.

“CCCAAGTCATCTGCTTT (sugars e3 k2 d7 k2 e3, PS)” yielded a target mRNA inhibition (HepG2, 3 µM) of 72%.

As to “ATCTTCCAAGTGATCAT (sugars e2 k2 d8 k2 e3, PS)”, for the setting “HepG2, 5 µM”, the target mRNA inhibition amounted to 38%.

“GCCTCGCCCACTCTGGCCCC (sugars e5 d10 e5, PS)”: the target mRNA inhibition (HepG2, 4 µM) was determined as 37%.

As for “GGACCTGCACTGGTACA (sugars e3 k2 d7 k2 e3, PS)”, the target mRNA inhibition (HepG2, 3 µM) was found to be 7%.

For the sequence “GTCTGGCAAAATACAGG (sugars e2 k2 d9 k2 e2, PS)”, the target mRNA inhibition (HepG2, 5 µM) was determined as 38%.

Turning to “GTTTAATGTTTATCAGGA (sugars e5 d8 e5, linkages s1 o3 s9 o2 s2)”, the target mRNA inhibition (A431, 0.12 µM) came out at 15%; the target mRNA inhibition (A431, 0.6 µM) was 51%; the target mRNA inhibition (A431, 3 µM) was determined as 68%; the target mRNA inhibition (A431, 15 µM) was 84%; the target mRNA inhibition (HepG2, 0.222 µM) was determined as 45%; the target mRNA inhibition (HepG2, 0.667 µM) is 73%. For the same sequence, the target mRNA inhibition reads like this: (HepG2, 2 µM) 78%; (HepG2, 6 µM) 87%.

On to “GGGTTTTTATTCACAGG (sugars e3 k2 d7 k2 e3, PS)”, for which the target mRNA inhibition (HepG2, 3 µM) stood at 17%.

On to “CACAGGCTTGAATGACA (sugars e2 k2 d8 k2 e3, PS)”, for which the target mRNA inhibition (HepG2, 5 µM) was 34%.

The sequence “CGTCGCCCTTCAGCACG (sugars e2 k2 d8 k2 e3, PS)” came in with a target mRNA inhibition (HepG2, 4 µM) of 52%.

Regarding “ACCTTCACTGGTCCATT (sugars e3 k2 d7 k2 e3, PS)”, the target mRNA inhibition (HepG2, 3 µM) is 44%.

“CCATACAGGGTTTTTAT (sugars e2 k2 d8 k2 e3, PS)” registered a target mRNA inhibition (HepG2, 5 µM) of 13%.

In the case of “CCTTCTGCTCGAAATTGATG (sugars e5 d10 e5, PS)”, the target mRNA inhibition (HepG2, 3 µM) came to 53%.

Under “HepG2, 5 µM”, “TCACACAATTACACTTT (sugars e2 k2 d8 k2 e3, PS)” came in with a target mRNA inhibition of 28%.

Where the note is “HepG2, 5 µM”, “GGCCAATGATGCAATGGTCT (sugars e5 d10 e5, PS)” registered a target mRNA inhibition of 9%.

Regarding “TTCAGTCAGTCCTTTAATGC (sugars e5 d10 e5, PS)”, the target mRNA inhibition (HepG2, 5 µM) was 24% and 21%.

As for “GTCGCCCTTCAGCACGCA (sugars e5 d8 e5, linkages s1 o3 s9 o2 s2)”, the target mRNA inhibition amounted to 10% (A431, 0.062 µM); 11% (A431, 0.185 µM); 11% (A431, 0.556 µM); 3% (A431, 1.667 µM); 18% (A431, 5 µM); 4% (A431, 15 µM). For the same sequence, the target mRNA inhibition (SH-SY5Y, 0.062 µM) came out at 13%; the target mRNA inhibition (SH-SY5Y, 0.185 µM) came out at 4%; the target mRNA inhibition (SH-SY5Y, 0.556 µM) amounted to 5%; the target mRNA inhibition (SH-SY5Y, 1.667 µM) amounted to 40%; the target mRNA inhibition (SH-SY5Y, 5 µM) came to 52%; the target mRNA inhibition (SH-SY5Y, 15 µM) stood at 77%.

Turning to “AGTGTTTAATGTTTAT (sugars kekeddddddddekek, linkages s1 o3 s8 o1 s2)”, the target mRNA inhibition reads like this: (A431, 0.12 µM) 2%; (A431, 0.6 µM) 31%; (A431, 3 µM) 47%; (A431, 15 µM) 61%.

“GTTTAATGTTTATCAGG (sugars e2 k2 d9 k2 e2, linkages s1 o3 s9 o1 s2)”: the target mRNA inhibition is, setting by setting: (A431, 0.12 µM) 25%; (A431, 0.6 µM) 69%; (A431, 3 µM) 89%; (A431, 15 µM) 95%; (HepG2, 0.222 µM) 76%; (HepG2, 0.667 µM) 90%. In addition, the target mRNA inhibition turned out to be 94% (HepG2, 2 µM) and 93% (HepG2, 6 µM).

Regarding “CTACAGGTACTTTAAAG (sugars e2 k2 d8 k2 e3, PS)”, the target mRNA inhibition (HepG2, 5 µM) turned out to be 2%.

As to “ATCCTTTGGCCCACCGT (sugars e3 k2 d7 k2 e3, PS)”, under “HepG2, 3 µM”, the target mRNA inhibition was determined as 51%.

For “AAATCTTCCAAGTGATC (sugars e2 k2 d9 k2 e2, PS)”, the target mRNA inhibition (HepG2, 5 µM) is 48%.

On to “GGATACATTTCTACAGC (sugars e2 k2 d9 k2 e2, PS)”, for which the target mRNA inhibition (HepG2, 0.1875 µM) was 44%; the target mRNA inhibition (HepG2, 0.75 µM) stood at 67%; the target mRNA inhibition (HepG2, 3 µM) came out at 89%; the target mRNA inhibition (HepG2, 4 µM) is 84%; the target mRNA inhibition (HepG2, 12 µM) amounted to 94%.

On to “TTTGTCAGCAGTCACATTGC (sugars e5 d10 e5, PS)”, for which, under “HepG2, 5 µM”, the target mRNA inhibition is 26% and 16%.
